Experimental findings from patent EP3723746B1, “PHENOXY ACIDS FOR THE TREATMENT OF NEUROMUSCULAR DISORDERS” (NMD Pharma A/S, priority 2017, dated 2019) are described below.

The target in one experiment is T1, human CIC-1 channels (Homo sapiens, UniProt P35523).
T1 construct: host or cells: CHO cells constitutively expressing human ClC-1
The experiment is described as follows: Automated patch-clamp on the human isoform of CIC-1 expressed in CHO cells. The settings on record: compound added intracellularly vs control cell patches; positive shift reflects CIC-1 inhibition. The class given is cell-based. On the procedure: The investigatory goal of these experiments was to evaluate how compounds affect the open probability and current amplitude of human CIC-1 channels expressed in CHO cells. Experiments were performed using an automated patch clamp system that allowed high throughput testing of whole cell patches together with both intracellular and extracellular addition of compound.
Automated whole cell patch clamp experiments were performed with the Qpatch 16 system (Sophion Bioscience, Ballerup, Denmark) at room temperature. Data acquisition and analysis were performed in the Qassay software (ver. 5.6, Odense).
To evoke CIC-1 currents in whole cell patches, the membrane potential was initially stepped from a holding potential of -30 mV to +60 mV for 100 ms and then to various test voltages (sweeps) ranging from +120 mV to -140 mV in steps of 20 mV for 300 ms. To obtain tail currents, the membrane potential was stepped to -100 mV after each test voltage for 300 ms and then relaxed to -30 mV for 2 sec between sweeps (Figure 3). I/V relationships for whole cell instant and steady state current amplitudes were obtained by plotting average current densities at the beginning and at the end of the 300 ms step against the membrane potential (Figure 4).
In order to determine the relative overall open probability (P0), the instantaneous tail currents were normalized to the maximal tail current obtained following the most positive voltage step and plotted against the test voltage. Plots of normalized tail currents from each whole cell patch were then fitted to a Boltzmann function allowing determination of half activation voltages (V1/2, Figure 5).
For automated patch clamp experiments extracellular solutions contained: 2 mM CaCl2, 1 mM MgCl2, 10 mM HEPES, 4 mM KCI, 145 mM NaCl, 10 mM Glucose, pH adjusted to 7.4 with NaOH (2 M). Osmolality adjusted to ~320 using sucrose.
Intracellular solutions contained: 80 mM CsF, 60 mM CsCI, 5/1 mM KOH/EGTA, 10 mM HEPES, 10 mM NaCl, pH adjusted to 7.2 with NaOH (2 M). Osmolality adjusted to ~320 mOsm using sucrose.
Cells used in patch clamp experiments were Chinese hamster ovary cells (CHO) constitutively expressing human CIC-1 channels. The amino acid sequence encoded by the cDNA used to create this cell line was identical to the translated sequence for GenBank accession number NM_000083.2. Cells were produced by Charles River (Catalogue CT6175, Cleveland OH, USA) in a cryopreserved format. Experiments were performed on the cells directly after thawing (3 × 10^6 cells used in each experiment).
To evaluate the compound effect on CIC-1, when applied directly to the intracellular side of the cell membrane, the half activation voltage, V1/2, was determined from whole cell patches with compound added to the intracellular solution and then compared to V1/2 determined from control cell patches with only vehicle added to the intracellular solution. Additionally, the effect of extracellular added compound was evaluated by determine V1/2 and steady state current amplitudes before and after exchanging the extracellular solution to contain compound.
The difference in half activation voltage of CIC-1 channels, ΔV1/2, was determined as the difference between the cell patches treated intracellularly with compound and control cells patches and is reported in Table 4 below. A positive shift in ΔV1/2 is reflecting CIC-1 channel inhibition by the tested compound. P-values of <0.05 is considered significant. […]
(Patch clamp records ionic current or voltage across a cell membrane.)

A further experiment concerns Lewis rats. The experiment in a line: Measurement of in situ muscle contractile characteristics (isometric hindlimb force under cisatracurium block). The class given is in vivo. The settings on record: 21.5 mg/kg i.v., cisatracurium infusion, 3 experiments. On the procedure: Isometric hindlimb force was measured in 12-week old female Lewis rats in the presence and absence of compound.
Rats were placed under anesthesia with isoflurane (2-4%), intubated and subsequently connected to a micro ventilator (Microvent 1, Hallowell EMC, US). Two stimulation electrodes were inserted through the skin to stimulate the sciatic nerve. A small incision was made proximal to the ankle, to expose the Achilles tendon, which was tied by cotton string, and connected to a force transducer (Fort250, World Precision Instruments) with adjustable position (Vernier control). The Achilles tendon was then cut distal to the attached cotton string. The rat was placed on a heated pad, and to prevent movement artefacts from contraction of the ankle dorsiflexors, the foot was fixated by tape on a footplate.
Muscle contractile properties were assessed by applying an electrical current (under supramaximal voltage conditions) to the nerve and recording the force generated by the muscle. The muscle was stretched until maximal force was obtained, when assessed by 2 Hz stimulation. Isometric force was measured every 30 seconds at 12 Hz (Twitch), 10 pulses, and at every 5 minutes at 80 Hz (Tetanic) for 1 second (80 pulses). This stimulation pattern was employed throughout the experiment, expect in few cases where 80 Hz stimulation was replaced by 12 Hz (10 pulses). […] When the level of neuromuscular inhibition was stable, the test article was injected i.v. at the chosen concentration. The effect of test article was assessed on its ability to increase force generated from the stimulation pattern applied. The effect was assessed in the ability to increase force per se (tetanic, 80 Hz, stimulation), and the ratio between individual twitch peaks (12 Hz stimulation). The effect was monitored for at least 1 hour after injection of test article. In addition, the time from injection of test article to maximal effect on force (both twitch and tetanic) was noted and the time for the effect to disappear (return to baseline), if possible. When appropriate the infusion of neuromuscular blocking agent was ceased, with the stimulation pattern continued, and the return of force to control levels was monitored. Animals were sacrificed by cervical dislocation while still fully sedated.

In another experiment the target is T2, CIC-1 channels (Rattus norvegicus, UniProt P35524).
T2 construct: from tissue; host or cells: whole soleus muscle of 12-14 week old Wistar rats
T2 sequence (P35524 1-994): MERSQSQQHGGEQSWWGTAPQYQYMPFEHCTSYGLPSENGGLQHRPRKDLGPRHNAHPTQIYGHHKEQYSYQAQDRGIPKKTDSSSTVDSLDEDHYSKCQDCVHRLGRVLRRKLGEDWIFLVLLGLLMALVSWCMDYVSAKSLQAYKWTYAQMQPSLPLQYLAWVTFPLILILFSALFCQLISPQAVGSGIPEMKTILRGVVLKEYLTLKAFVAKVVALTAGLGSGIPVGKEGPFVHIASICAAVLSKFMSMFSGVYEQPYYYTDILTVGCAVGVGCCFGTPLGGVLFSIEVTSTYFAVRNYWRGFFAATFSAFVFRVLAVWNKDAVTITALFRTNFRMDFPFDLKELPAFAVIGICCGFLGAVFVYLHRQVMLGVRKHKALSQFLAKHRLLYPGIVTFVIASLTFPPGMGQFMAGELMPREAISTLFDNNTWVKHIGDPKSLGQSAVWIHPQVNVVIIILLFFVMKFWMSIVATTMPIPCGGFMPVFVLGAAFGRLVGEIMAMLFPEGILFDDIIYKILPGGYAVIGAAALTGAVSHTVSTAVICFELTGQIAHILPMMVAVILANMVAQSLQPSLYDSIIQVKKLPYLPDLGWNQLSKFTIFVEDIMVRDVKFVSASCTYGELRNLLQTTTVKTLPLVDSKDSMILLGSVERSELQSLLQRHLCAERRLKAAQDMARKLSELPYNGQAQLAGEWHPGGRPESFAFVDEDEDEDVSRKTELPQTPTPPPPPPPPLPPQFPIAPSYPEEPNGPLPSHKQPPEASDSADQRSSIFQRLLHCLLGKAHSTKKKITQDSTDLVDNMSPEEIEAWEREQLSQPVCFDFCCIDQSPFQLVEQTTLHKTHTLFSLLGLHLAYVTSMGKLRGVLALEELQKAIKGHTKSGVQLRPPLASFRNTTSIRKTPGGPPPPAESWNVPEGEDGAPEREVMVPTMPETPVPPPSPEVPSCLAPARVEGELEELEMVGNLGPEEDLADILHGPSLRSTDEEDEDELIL
The experiment is described as follows: Electrophysiological measurement of compound inhibition of CIC-1 in rat muscle (Gm, three micro-electrode technique, soleus muscle fibres). The class given is cell-based. The settings on record: reduction of Gm in rat soleus muscle fibres, approx. 30°C; mean ± spread, n = number of experiments. An excerpt:
Table 2: Inhibition of CIC-1 ion channel using compounds of the invention

A further experiment relates to soleus muscles. The experiment is described as follows: Measurement of force in an in vitro model: recovery of contractile force of isolated rat soleus nerve-muscle preparation after tubocurarine. The settings on record: Rattus norvegicus, 40 min; 50 µM test compound, after 90 mins 115 nM tubocurarine; percentage of the initial force restored after 40 mins of compound exposure; read-out: Point increase. The procedure: Recovery of force is quantified as the percentage of the force prior to tubocurarine that is recovered by the compound.
The current invention relates to compounds that inhibit CIC-1 ion channels and increase muscle excitability and thereby improve muscle function in clinical conditions where muscle activation is failing. Such conditions result in loss of contractile function of skeletal muscle, weakness and excessive fatigue. In this series of experiments the compounds were tested for their ability to restore contractile function of isolated rat muscle when the neuromuscular transmission had been compromised akin to neuromuscular disorders.
Experimentally, soleus muscles from 4-5 week old rats were isolated with the motor nerve remaining attached. The nerve-muscle preparations were mounted in experimental setups that enabled electrical stimulation of the motor nerve. Stimulation of the motor nerve led to activation of the muscle fibres and ensuing force production that was recorded.
After mounting the nerve-muscle preparation in the experimental setup, the contractile function of the muscle was initially assessed under the control conditions (Figure 2A). […] The experimental condition mimics the failing neuromuscular transmission in a range of neuromuscular disorders. After addition of tubocurarine the contractile force declined over the next 90 mins to 10-50 % of the control force. 50 µM of the test compound was then added and the contractile force recovered despite the continued presence of tubocurarine. To quantify the ability of the compound to restore force the percentage of the initial force that was restored was determined after 40 mins of compound exposure (Figure 2B) and the point increase is reported in Table 3. Table 3: Percentage increase of initial force that was restored

T1 sequence (P35523 whole entry): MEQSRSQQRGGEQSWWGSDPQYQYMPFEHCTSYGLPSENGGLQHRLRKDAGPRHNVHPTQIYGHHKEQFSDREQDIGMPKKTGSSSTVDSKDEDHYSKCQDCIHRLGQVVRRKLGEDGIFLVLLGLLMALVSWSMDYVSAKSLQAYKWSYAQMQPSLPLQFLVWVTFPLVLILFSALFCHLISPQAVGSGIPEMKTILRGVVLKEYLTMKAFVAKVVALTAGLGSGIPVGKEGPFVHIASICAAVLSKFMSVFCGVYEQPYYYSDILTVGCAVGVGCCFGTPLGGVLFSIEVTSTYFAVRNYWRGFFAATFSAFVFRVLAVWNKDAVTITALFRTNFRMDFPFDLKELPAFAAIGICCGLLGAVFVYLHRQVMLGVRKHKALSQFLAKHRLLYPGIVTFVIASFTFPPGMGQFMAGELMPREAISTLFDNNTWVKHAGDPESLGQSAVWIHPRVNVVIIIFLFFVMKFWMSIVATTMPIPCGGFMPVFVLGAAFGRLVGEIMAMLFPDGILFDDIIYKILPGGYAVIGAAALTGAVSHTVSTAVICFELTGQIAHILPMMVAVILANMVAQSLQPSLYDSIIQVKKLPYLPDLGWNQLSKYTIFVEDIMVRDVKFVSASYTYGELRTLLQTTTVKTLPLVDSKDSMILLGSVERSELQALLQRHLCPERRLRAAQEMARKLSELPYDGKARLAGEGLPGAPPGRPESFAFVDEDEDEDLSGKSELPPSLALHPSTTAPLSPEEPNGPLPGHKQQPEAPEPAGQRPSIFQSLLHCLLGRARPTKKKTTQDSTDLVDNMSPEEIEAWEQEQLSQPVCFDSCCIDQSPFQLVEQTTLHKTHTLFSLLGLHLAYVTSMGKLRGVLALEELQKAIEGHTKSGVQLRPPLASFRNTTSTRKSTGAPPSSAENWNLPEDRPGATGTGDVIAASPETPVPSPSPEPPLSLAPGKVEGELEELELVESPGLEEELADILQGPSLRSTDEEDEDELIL

Turning to `C[C@H](Oc1ccc(Br)cc1C1CC1)C(=O)O` [Compound A-2, (2S)-2-(4-bromo-2-cyclopropylphenoxy)propanoic acid], the ΔV1/2 at human CIC-1 channels is 9.2 mV. The “change in twitch peaks” value with Lewis rats (12 Hz stimulation) is “no significant change”. In addition, in the experiment on Lewis rats (80 Hz stimulation), the “average increase in tetanic force” value stood at 28.5%.
Take `C[C@H](Oc1ccc(Cl)cc1C1CC1)C(=O)O` [Compound A-4, (2S)-2-(4-chloro-2-cyclopropylphenoxy)propanoic acid]: the ΔV1/2 on human CIC-1 channels worked out at 8.8 mV.
The EC50 is the concentration needed to bring the measured effect to its halfway point. Low readings indicate greater potency, high ones weaker potency. `C[C@H](Oc1ccc(Br)cc1C1CCC1)C(=O)O` [Compound A-14, (2S)-2-(4-bromo-2-cyclobutylphenoxy)propanoic acid]: the EC50 on CIC-1 channels came out at 4.3 ± 2.3 µM. Also, the activation at 50 µM with soleus muscles turned out to be 17%.
`C=Cc1cc(Br)ccc1O[C@@H](C)C(=O)O` [Compound A-17, (2S)-2-(4-bromo-2-ethenylphenoxy)propanoic acid]: the midpoint of the response at CIC-1 channels, the EC50, lay at 4.2 ± 0.7 µM. Moreover, in the experiment with soleus muscles, the activation at 50 µM was 21%. Besides, at human CIC-1 channels, the ΔV1/2 is given as 10.3 mV.
As for `C#Cc1cc(Cl)ccc1O[C@@H](C)C(=O)O` [Compound A-20, (2S)-2-(4-chloro-2-ethynylphenoxy)propanoic acid], the ΔV1/2 at human CIC-1 channels was determined as 26.4 mV.
In turn, `[2H]C([2H])(C)C(=O)c1cc(Cl)ccc1O[C@@H](C)C(=O)O` [Compound A-27, (2S)-2-{4-chloro-2-[(2,2-^2H2)propanoyl]phenoxy}propanoic acid] had an EC50 on CIC-1 channels of 8.3 µM. Also, the activation at 50 µM in the experiment with soleus muscles worked out at 36%.
Regarding `CCC(=O)c1cc(Cl)ccc1O[C@@H](C)C(=O)O` [Compound A-30, (2S)-2-(4-chloro-2-propanoylphenoxy)propanoic acid], the ΔV1/2 on human CIC-1 channels is given as 6.2 mV.
On CIC-1 channels, `C[C@H](Oc1ccc(Br)cc1C=C(F)F)C(=O)O` [Compound A-36, (2S)-2-[4-bromo-2-(2,2-difluoroethenyl)phenoxy]propanoic acid] yielded an EC50 of 3.7 µM. Besides, the activation at 50 µM with soleus muscles was found to be 16%. Further, at human CIC-1 channels, the ΔV1/2 came to 21.5 mV.
For `C[C@H](Oc1cc(F)c(Br)cc1C1CC1)C(=O)O` [Compound A-44, (2S)-2-(4-bromo-2-cyclopropyl-5-fluorophenoxy)propanoic acid], the activation at 50 µM in the experiment with soleus muscles is 12%.
For the compound `C#Cc1cc(Br)ccc1O[C@H](C(=O)O)C1CCC1` [Compound A-46, (2S)-2-(4-bromo-2-ethynylphenoxy)-2-cyclobutylacetic acid], on CIC-1 channels, a half-maximal effect (EC50) was put at 6.1 µM.
For `C#Cc1cc(Br)c(F)cc1O[C@@H](C)C(=O)O` [Compound A-47, (2S)-2-(4-bromo-2-ethynyl-5-fluorophenoxy)propanoic acid], the activation at 50 µM with soleus muscles is 15%.
The same measure, in the same setting: in the case of `C#Cc1cc(Cl)c(F)cc1O[C@@H](C)C(=O)O` [Compound A-48, (2S)-2-(4-chloro-2-ethynyl-5-fluorophenoxy)propanoic acid] it was 14%.
At CIC-1 channels, `C=Cc1cc(Br)ccc1O[C@@H](CCF)C(=O)O` [Compound A-51, (2S)-2-(4-bromo-2-ethenylphenoxy)-4-fluorobutanoic acid] came in with an EC50 of 4 ± 3 µM. In the experiment on soleus muscles, the activation at 50 µM was 27%.
For the compound `C[C@H](Oc1ccc(Br)cc1/C=C/F)C(=O)O` [Compound A-52, (2S)-2-{4-bromo-2-[(1E)-2-fluoroethenyl]phenoxy}propanoic acid], the EC50 on CIC-1 channels is 3 µM.
`C#Cc1cc(Br)ccc1O[C@@H](CC)C(=O)O` [Compound A-54, (2S)-2-(4-bromo-2-ethynylphenoxy)butanoic acid] registered an EC50 at CIC-1 channels of 7.2 ± 3.5 µM. Also, the activation at 50 µM in the experiment on soleus muscles turned out to be 18%.
For `O=C(O)COc1ccc(Br)cc1C1CC1` [Compound A-55, 2-(4-bromo-2-cyclopropylphenoxy)acetic acid], in that order: 6.4 µM and 25%.
`C#Cc1cc(Br)ccc1OCC(=O)O` [Compound A-56, 2-(4-bromo-2-ethynylphenoxy)acetic acid]: the activation at 50 µM in the experiment on soleus muscles worked out at 14%.
